# Data taken from US6420563B1, “Small molecule modulators of G protein-coupled receptor six” (Arena Pharmaceuticals, Inc., priority 1998, dated 2002).
# Assay: Food intake in non-food deprived rats, oral gavage
# Format: in vivo, rat
# Method: In a second assay, rats were treated with ARE112 by oral gavage but were not food deprived. Data evidence an even greater decrease in food intake, such that at 18 hours post administration of the compound, the vehicle rats had consumed about 15 grams of food while the injected rats (at all doses) ate 5 grams or less; about a three fold decrease in food consumption when treated with compound ARE112. (See, FIG. 9B).
smiles,measurement,setting,value
"O=C(N=C1SSC2=NCCN21)c1cccs1 [ARE112, N-(5,6-dihydro-3H-imidazo[2,1-c]-1,2,4-dithiazol-3-ylidene)-thiophen-2-carboxamide]",oral activity,6.75 to 54 mg/kg,orally active
same,decrease in food consumption,18 hours post administration,three
same,food consumed,"all doses, 18 hours post administration, vehicle about 15 grams",≤ 5 grams
